Assay results: patent US9695155B2, “Herbicidal substituted pyrimidinyloxy benzene compounds” (E. I. DU PONT DE NEMOURS AND COMPANY, priority 2013, dated 2017)

Tests used:
barnyardgrass [1] = experiment: Test C postemergence; format: in vivo, Echinochloa crus-galli
How it was run: (§1)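 Visual injury score versus untreated controls, 0 = no effect, 100 = complete control, taken 13 to 15 days after treatment in the greenhouse. Pre-emergence pots held loam/sand; post-emergence plants grew in sphagnum peat/vermiculite mix and were sprayed at the 1- to 4-leaf stage.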

giant foxtail = experiment: Test C preemergence; format: in vivo, Setaria faberii
How it was run: as §1

oilseed rape [2] = experiment: Test C preemergence; format: in vivo, Brassica napus
How it was run: as §1

oilseed rape [3] = experiment: Test C postemergence; format: in vivo, Brassica napus
How it was run: as §1

sedge, umbrella = experiment: Test B flooded paddy test; format: in vivo, Cyperus difformis; conditions: Flood, 250 g ai/ha, 0 to 100 scale where 0 is no effect and 100 is complete control
How it was run: (§2)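 2-leaf stage plants; pots flooded to 3 cm, compound added to paddy water, depth maintained. Greenhouse 13–15 d. Visual rating vs untreated controls, 0 (no effect) to 100 (complete control); dash = no result.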

barnyardgrass [4] = experiment: Test B flooded paddy test; format: in vivo, Echinochloa crus-galli; conditions: Flood, 250 g ai/ha, 0 to 100 scale where 0 is no effect and 100 is complete control
How it was run: as §2

large (Lg) crabgrass = experiment: Test C postemergence; format: in vivo, Digitaria sanguinalis
How it was run: as §1

soybean = experiment: Test C postemergence; format: in vivo, Glycine max
How it was run: as §1

velvetleaf = experiment: Test C postemergence; format: in vivo, Abutilon theophrasti
How it was run: as §1

barnyardgrass [5] = experiment: Test C preemergence; format: in vivo, Echinochloa crus-galli
How it was run: as §1

corn = experiment: Test C preemergence; format: in vivo, Zea mays
How it was run: as §1

waterhemp = experiment: Test C postemergence; format: in vivo, Amaranthus rudis
How it was run: as §1

[6] = 16 g ai/ha, postemergence, 0 is no effect, 100 is complete control
[7] = 125 g ai/ha, postemergence, visual rating, scale 0 to 100 (0 no effect, 100 complete control)
[8] = Postemergence, 62 g ai/ha, scale 0 to 100 (0 no effect, 100 complete control)
[9] = 16 g ai/ha, preemergence, scale 0 to 100 (0 no effect, 100 complete control)
[10] = 62 g ai/ha, preemergence, scale 0 (no effect) to 100 (complete control)
[11] = 125 g ai/ha, preemergence, scale 0 (no effect) to 100 (complete control)
[12] = Preemergence, 31 g ai/ha, scale 0 to 100, 0 no effect, 100 complete control

## FC(F)(F)Sc1cnn(-c2ccccc2Oc2ncc(Cl)cn2)c1 [Compound 132, 5-chloro-2-[2-[4-(trifluoromethylthio)-1H-pyrazol-1-yl]phenoxy]pyrimidine]
Barnyardgrass [1]; Echinochloa crus-galli, post-emergence, 16 g ai/ha, postemergence, 0 is no effect, 100 is complete control, read-out: Plant response rating (0 to 100), Barnyardgrass
  pest or weed control at 16 g/ha: 0%
Barnyardgrass [1]; Echinochloa crus-galli, post-emergence, 125 g ai/ha, postemergence, visual rating, scale 0 to 100 (0 no effect, 100 complete control), read-out: Plant response rating, Barnyardgrass
  pest or weed control at 125 g/ha: 5%
Barnyardgrass [1]; Echinochloa crus-galli, post-emergence, Postemergence, 31 g ai/ha, scale 0 to 100 (0 no effect, 100 complete control), 13 to 15 days, read-out: Plant response rating, Barnyardgrass
  pest or weed control at 31 g/ha: 0%
Barnyardgrass [1]; Echinochloa crus-galli, post-emergence, Postemergence, 62 g ai/ha, scale 0 to 100 (0 no effect, 100 complete control), read-out: Plant response rating, Barnyardgrass
  pest or weed control at 62 g/ha: 5%
Giant foxtail; Setaria faberi, pre-emergence, 16 g ai/ha, preemergence, scale 0 to 100 (0 no effect, 100 complete control), read-out: Foxtail, Giant plant response rating
  pest or weed control at 16 g/ha: 5%
Giant foxtail; Setaria faberi, pre-emergence, 62 g ai/ha, preemergence, scale 0 (no effect) to 100 (complete control), read-out: Foxtail, Giant plant response rating
  pest or weed control at 62 g/ha: 70%
Giant foxtail; Setaria faberi, pre-emergence, 125 g ai/ha, preemergence, scale 0 (no effect) to 100 (complete control), read-out: Foxtail, Giant plant response rating
  pest or weed control at 125 g/ha: 98%
Giant foxtail; Setaria faberi, pre-emergence, Preemergence, 31 g ai/ha, scale 0 to 100, 0 no effect, 100 complete control, read-out: Plant response rating, Foxtail, Giant
  pest or weed control at 31 g/ha: 55%
Oilseed rape [2]; Brassica napus, pre-emergence, 16 g ai/ha, preemergence, scale 0 to 100 (0 no effect, 100 complete control), read-out: Oilseed Rape plant response rating
  plant injury at 16 g/ha: 20%
Oilseed rape [2]; Brassica napus, pre-emergence, 62 g ai/ha, preemergence, scale 0 (no effect) to 100 (complete control), read-out: Oilseed Rape plant response rating
  plant injury at 62 g/ha: 100%
Oilseed rape [2]; Brassica napus, pre-emergence, 125 g ai/ha, preemergence, scale 0 (no effect) to 100 (complete control), read-out: Oilseed Rape plant response rating
  plant injury at 125 g/ha: 100%
Oilseed rape [2]; Brassica napus, pre-emergence, Preemergence, 31 g ai/ha, scale 0 to 100, 0 no effect, 100 complete control, read-out: Plant response rating, Oilseed Rape
  plant injury at 31 g/ha: 85%
Oilseed rape [3]; Brassica napus, post-emergence, 16 g ai/ha, postemergence, 0 is no effect, 100 is complete control, read-out: Plant response rating (0 to 100), Oilseed Rape
  plant injury at 16 g/ha: 40%
Oilseed rape [3]; Brassica napus, post-emergence, 125 g ai/ha, postemergence, visual rating, scale 0 to 100 (0 no effect, 100 complete control), read-out: Plant response rating, Oilseed Rape
  plant injury at 125 g/ha: 95%
Oilseed rape [3]; Brassica napus, post-emergence, Postemergence, 62 g ai/ha, scale 0 to 100 (0 no effect, 100 complete control), read-out: Plant response rating, Oilseed Rape
  plant injury at 62 g/ha: 70%
sedge, umbrella; Cyperus difformis, read-out: Plant response rating, Sedge, Umbrella
  pest or weed control at 250 g/ha: 0%
Barnyardgrass [4]; Echinochloa crus-galli, read-out: Plant response rating, Barnyardgrass
  pest or weed control at 250 g/ha: 0%
Large (Lg) crabgrass; Digitaria sanguinalis, post-emergence, 16 g ai/ha, postemergence, 0 is no effect, 100 is complete control, read-out: Plant response rating (0 to 100), Crabgrass, Large
  pest or weed control at 16 g/ha: 5%
Large (Lg) crabgrass; Digitaria sanguinalis, post-emergence, 125 g ai/ha, postemergence, visual rating, scale 0 to 100 (0 no effect, 100 complete control), read-out: Plant response rating, Crabgrass, Large
  pest or weed control at 125 g/ha: 10%
Large (Lg) crabgrass; Digitaria sanguinalis, post-emergence, Postemergence, 62 g ai/ha, scale 0 to 100 (0 no effect, 100 complete control), read-out: Plant response rating, Crabgrass, Large
  pest or weed control at 62 g/ha: 5%
soybean; Glycine max, post-emergence, 16 g ai/ha, postemergence, 0 is no effect, 100 is complete control
  Soybean plant response rating (crop injury, 0-100 scale) at 16 g/ha: 20%
soybean; Glycine max, post-emergence, 125 g ai/ha, postemergence, visual rating, scale 0 to 100 (0 no effect, 100 complete control), read-out: Plant response rating, Soybean
  Soybean plant response rating (crop injury, 0-100 scale) at 125 g/ha: 50%
soybean; Glycine max, post-emergence, Postemergence, 62 g ai/ha, scale 0 to 100 (0 no effect, 100 complete control)
  Soybean plant response rating (crop injury, 0-100 scale) at 62 g/ha: 35%
velvetleaf; Abutilon theophrasti, post-emergence, 16 g ai/ha, postemergence, 0 is no effect, 100 is complete control, read-out: Plant response rating (0 to 100), Velvetleaf
  pest or weed control at 16 g/ha: 5%
velvetleaf; Abutilon theophrasti, post-emergence, 125 g ai/ha, postemergence, visual rating, scale 0 to 100 (0 no effect, 100 complete control), read-out: Plant response rating, Velvetleaf
  pest or weed control at 125 g/ha: 45%
velvetleaf; Abutilon theophrasti, post-emergence, Postemergence, 62 g ai/ha, scale 0 to 100 (0 no effect, 100 complete control), read-out: Plant response rating, Velvetleaf
  pest or weed control at 62 g/ha: 40%
Barnyardgrass [5]; Echinochloa crus-galli, pre-emergence, 16 g ai/ha, preemergence, scale 0 to 100 (0 no effect, 100 complete control), read-out: Barnyardgrass plant response rating
  pest or weed control at 16 g/ha: 0%
Barnyardgrass [5]; Echinochloa crus-galli, pre-emergence, 62 g ai/ha, preemergence, scale 0 (no effect) to 100 (complete control), read-out: Barnyardgrass plant response rating
  pest or weed control at 62 g/ha: 10%
Barnyardgrass [5]; Echinochloa crus-galli, pre-emergence, 125 g ai/ha, preemergence, scale 0 (no effect) to 100 (complete control), read-out: Barnyardgrass plant response rating
  pest or weed control at 125 g/ha: 75%
Barnyardgrass [5]; Echinochloa crus-galli, pre-emergence, Preemergence, 31 g ai/ha, scale 0 to 100, 0 no effect, 100 complete control, read-out: Plant response rating, Barnyardgrass
  pest or weed control at 31 g/ha: 0%
corn; Zea mays, pre-emergence, 16 g ai/ha, preemergence, scale 0 to 100 (0 no effect, 100 complete control), read-out: Corn plant response rating
  plant injury at 16 g/ha: 0%
corn; Zea mays, pre-emergence, 62 g ai/ha, preemergence, scale 0 (no effect) to 100 (complete control), read-out: Corn plant response rating
  plant injury at 62 g/ha: 20%
corn; Zea mays, pre-emergence, 125 g ai/ha, preemergence, scale 0 (no effect) to 100 (complete control), read-out: Corn plant response rating
  plant injury at 125 g/ha: 35%
corn; Zea mays, pre-emergence, Preemergence, 31 g ai/ha, scale 0 to 100, 0 no effect, 100 complete control
  Corn plant response rating (crop injury, 0 = no effect, 100 = complete kill) at 31 g/ha: 10%
waterhemp; Amaranthus tuberculatus, post-emergence, 16 g ai/ha, postemergence, 0 is no effect, 100 is complete control, read-out: Plant response rating (0 to 100), Waterhemp
  pest or weed control at 16 g/ha: 45%
waterhemp; Amaranthus tuberculatus, post-emergence, 125 g ai/ha, postemergence, visual rating, scale 0 to 100 (0 no effect, 100 complete control), read-out: Plant response rating, Waterhemp
  pest or weed control at 125 g/ha: 75%
waterhemp; Amaranthus tuberculatus, post-emergence, Postemergence, 62 g ai/ha, scale 0 to 100 (0 no effect, 100 complete control), read-out: Plant response rating, Waterhemp
  pest or weed control at 62 g/ha: 65%

## Cc1cnc(Oc2cccc(C#N)c2-n2cc(I)cn2)nc1 [Compound 136]
Barnyardgrass [1]; [6]
  Plant response rating (0 to 100), Barnyardgrass: 0
Barnyardgrass [1]; [7]
  Plant response rating, Barnyardgrass: 5
Barnyardgrass [1]; Postemergence, 31 g ai/ha, scale 0 to 100 (0 no effect, 100 complete control), 13 to 15 days
  Plant response rating, Barnyardgrass: 0
Barnyardgrass [1]; [8]
  Plant response rating, Barnyardgrass: 0
Giant foxtail; [9]
  Foxtail, Giant plant response rating: 0
Giant foxtail; [10]
  Foxtail, Giant plant response rating: 80
Giant foxtail; [11]
  Foxtail, Giant plant response rating: 100
Giant foxtail; [12]
  Plant response rating, Foxtail, Giant: 5
Oilseed rape [2]; [9]
  Oilseed Rape plant response rating: 0
Oilseed rape [2]; [10]
  Oilseed Rape plant response rating: 50
Oilseed rape [2]; [11]
  Oilseed Rape plant response rating: 100
Oilseed rape [3]; [6]
  Plant response rating (0 to 100), Oilseed Rape: 0
Oilseed rape [3]; [7]
  Plant response rating, Oilseed Rape: 5
Oilseed rape [3]; [8]
  Plant response rating, Oilseed Rape: 5
sedge, umbrella
  Plant response rating, Sedge, Umbrella: 70
Barnyardgrass [4]
  Plant response rating, Barnyardgrass: 20
Large (Lg) crabgrass; [6]
  Plant response rating (0 to 100), Crabgrass, Large: 5
Large (Lg) crabgrass; [7]
  Plant response rating, Crabgrass, Large: 15
Large (Lg) crabgrass; [8]
  Plant response rating, Crabgrass, Large: 5
soybean; [6]
  Plant response rating (0 to 100), Soybean: 35
soybean; [7]
  Plant response rating, Soybean: 90
soybean; [8]
  Plant response rating, Soybean: 75
velvetleaf; [6]
  Plant response rating (0 to 100), Velvetleaf: 10
velvetleaf; [7]
  Plant response rating, Velvetleaf: 25
velvetleaf; [8]
  Plant response rating, Velvetleaf: 10
Barnyardgrass [5]; [9]
  Barnyardgrass plant response rating: 0
Barnyardgrass [5]; [10]
  Barnyardgrass plant response rating: 60
Barnyardgrass [5]; [11]
  Barnyardgrass plant response rating: 100
Barnyardgrass [5]; [12]
  Plant response rating, Barnyardgrass: 10
corn; [9]
  Corn plant response rating: 5
corn; [10]
  Corn plant response rating: 5
corn; [11]
  Corn plant response rating: 15
corn; [12]
  Plant response rating, Corn: 0
waterhemp; [6]
  Plant response rating (0 to 100), Waterhemp: 40
waterhemp; [7]
  Plant response rating, Waterhemp: 30
waterhemp; [8]
  Plant response rating, Waterhemp: 35
